Results published in patent publication US10681908B2, “Molecules having pesticidal utility, and intermediates, compositions, and processes, related thereto” (Dow AgroSciences LLC, priority 2016, dated 2020).

How the values were obtained:
Format in all cases: in vivo
[1] = test system: Beet Armyworm (Spodoptera exigua, LAPHEG); test: Bioassay on Beet Armyworm (BAW), 128-well diet tray assay; conditions: 168 h, 50 μg/cm^2 on artificial diet, second instar larvae, five to seven days, 25° C., read-out: BAW % Control (or Mortality) rating
Summary of the method: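 Artificial diet was surface-treated with 50 μg/cm^2 of compound in 90:10 acetone-water and dried; one to five second-instar larvae were placed per well, eight wells per treatment. Held at 25 °C, 14:10 light-dark, for five to seven days, then percent mortality per well was averaged.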

[2] = test system: Cabbage Looper (Trichoplusia ni, TRIPNI); test: Bioassay on Cabbage Looper (CL), 128-well diet tray assay; conditions: 168 h, 50 μg/cm^2 on artificial diet, second instar larvae, five to seven days, 25° C., read-out: CL % Control (or Mortality) rating
Summary of the method: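 Diet-tray assay: 1–5 second-instar larvae per well on artificial diet surface-treated with 50 μg/cm^2 compound (90:10 acetone-water, dried), eight wells per compound. Held at 25° C., 14:10 light-dark for five to seven days; percent mortality per well averaged across the eight wells.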

[3] = test system: Yellow Fever Mosquito (Aedes aegypti, AEDSAE); conditions: about 1 day-old larvae, 3 days, room temperature, scored on mortality
Method: Example C: Bioassays on Yellow Fever Mosqurro (Aedes aegypti, AEDSAE) (“YFM”)
Certain molecules disclosed in this document were tested against YFM using procedures described in the following paragraph. In the reporting of the results, the “GPA & YFM Rating Table” was used (See Table Section).
Master plates containing 400 μg of a molecule dissolved in 100 μL of dimethyl sulfoxide (DMSO) (equivalent to a 4000 ppm solution) are used. A master plate of assembled molecules contains 15 μL per well. To this plate, 135 μL of a 90:10 water:acetone mixture is added to each well. A robot (Biomek® NXP Laboratory Automation Workstation) is programmed to dispense 15 μL aspirations from the master plate into an empty 96-well shallow plate (“daughter” plate). There are 6 reps (“daughter” plates) created per master. The created daughter plates are then immediately infested with YFM larvae.
The day before plates are to be treated, mosquito eggs are placed in Millipore water containing liver powder to begin hatching (4 g. into 400 mL). After the daughter plates are created using the robot, they are infested with 220 μL of the liver powder/larval mosquito mixture (about 1 day-old larvae). After plates are infested with mosquito larvae, a non-evaporative lid is used to cover the plate to reduce drying. Plates are held at room temperature for 3 days prior to grading. After 3 days, each well is observed and scored based on mortality. The results are indicated in the table entitled “Table ABC: Biological Results” (See Table Section).

Structure (SMILES) | mortality at 50 µg/cm2 [1] [%] | mortality at 50 µg/cm2 [2] [%] | YFM % Control (or Mortality) rating [3]
C[C@H](CS(=O)(=O)CC(F)(F)F)NC(=O)c1ccc(/C(F)=C/C(c2cc(Cl)cc(Cl)c2)C(F)(F)F)cc1C(F)(F)F (stereo partly drawn) [F17, 4-((Z)-3-(3,5-dichlorophenyl)-1,4,4,4-tetrafluorobut-1-en-1-yl)-N—((R)-1-((2,2,2-trifluoroethyl)sulfonyl)propan-2-yl)-2-(trifluoromethyl)benzamide] | 50 to 100 | 50 to 100 | A (80-100)
C=Cc1c(Cl)cc(C(/C=C(\F)c2ccc(C(=O)N[C@H](C)C[S+]([O-])CC(F)(F)F)c(C(F)(F)F)c2)C(F)(F)F)cc1Cl (stereo partly drawn) [F34, 4-((Z)-3-(3,5-Dichloro-4-vinylphenyl)-1,4,4,4-tetrafluorobut-1-en-1-yl)-N-((2R)-1-((2,2,2-trifluoroethyl)sulfinyl)propan-2-yl)-2-(trifluoromethyl)benzamide] | 50 to 100 | 50 to 100 | A (80-100)
O=C(NCCSCCF)c1ccc(/C(F)=C/C(c2cc(Cl)c(Cl)c(Cl)c2)C(F)(F)F)cc1C(F)(F)F (stereo not drawn) [F125, (Z)—N-(2-((2-Fluoroethyl)thio)ethyl)-4-(1,4,4,4-tetrafluoro-3-(3,4,5-trichlorophenyl)but-1-en-1-yl)-2-(trifluoromethyl)benzamide] | 50 to 100 | 50 to 100 | D (No activity noticed in this bioassay)
C[C@H](CS(=O)(=O)CC(F)(F)F)NC(=O)c1ccc(/C(F)=C/C(c2cc(Cl)c(Cl)c(Cl)c2)C(F)(F)F)c2ccccc12 (stereo partly drawn) [PF1, 4-((Z)-1,4,4,4-Tetrafluoro-3-(3,4,5-trichlorophenyl)but-1-en-1-yl)-N—((R)-1-((2,2,2-trifluoroethyl)sulfonyl)propan-2-yl)-1-naphthamide] | 50 to 100 | 50 to 100 | A (80-100)
C[C@H](C[S+]([O-])CC(F)(F)F)NC(=O)c1ccc(/C(F)=C/C(c2cc(Br)c(Cl)c(Br)c2)C(F)(F)F)cc1C(F)(F)F (stereo partly drawn) [F23, 4-((Z)-3-(3,5-Dibromo-4-chlorophenyl)-1,4,4,4-tetrafluorobut-1-en-1-yl)-N-((2R)-1-((2,2,2-trifluoroethyl)sulfinyl)propan-2-yl)-2-(trifluoromethyl)benzamide] | 50 to 100 | 50 to 100 | A (80-100)
C[C@H](C[S+]([O-])CC(F)(F)F)NC(=O)c1ccc(/C(F)=C/C(c2ccc(Cl)c(Cl)c2)C(F)(F)F)cc1C(F)(F)F (stereo partly drawn) [F28, 4-((Z)-3-(3,4-Dichlorophenyl)-1,4,4,4-tetrafluorobut-1-en-1-yl)-N-((2R)-1-((2,2,2-trifluoroethyl)sulfinyl)propan-2-yl)-2-(trifluoromethyl)benzamide] | 50 to 100 | 50 to 100 | B (More than 0-Less than 80)
C[C@H](CS(=O)(=O)CC(F)(F)F)NC(=O)c1ccc(/C(F)=C/C(c2ccc(Cl)c(Cl)c2)C(F)(F)F)cc1C(F)(F)F (stereo partly drawn) [F18, 4-((Z)-3-(3,4-Dichlorophenyl)-1,4,4,4-tetrafluorobut-1-en-1-yl)-N—((R)-1-((2,2,2-trifluoroethyl)sulfonyl)propan-2-yl)-2-(trifluoromethyl)benzamide] | 50 to 100 | 50 to 100 | A (80-100)
C[C@H](CS(=O)(=O)CC(F)(F)F)NC(=O)c1ccc(/C(F)=C/C(c2cc(Cl)c(F)c(Cl)c2)C(F)(F)F)cc1C(F)(F)F (stereo partly drawn) [F29, 4-((Z)-3-(3,5-Dichloro-4-fluorophenyl)-1,4,4,4-tetrafluorobut-1-en-1-yl)-N—((R)-1-((2,2,2-trifluoroethyl)sulfonyl)propan-2-yl)-2-(trifluoromethyl)benzamide] | 50 to 100 | 50 to 100 | A (80-100)
C[C@H](CSCC(F)(F)F)NC(=O)c1ccc(/C(F)=C/C(c2ccc(Cl)c(Cl)c2)C(F)(F)F)cc1C(F)(F)F (stereo partly drawn) [F20, 4-((Z)-3-(3,4-Dichlorophenyl)-1,4,4,4-tetrafluorobut-1-en-1-yl)-N—((R)-1-((2,2,2-trifluoroethyl)thio)propan-2-yl)-2-(trifluoromethyl)benzamide] | 50 to 100 | 50 to 100 | D (No activity noticed in this bioassay)
CCS(=O)(=O)C[C@@H](C)NC(=O)c1ccc(/C(F)=C/C(c2cc(C)c(Cl)c(C)c2)C(F)(F)F)cc1C(F)(F)F (stereo partly drawn) [F53, 4-((Z)-3-(4-Chloro-3,5-dimethylphenyl)-1,4,4,4-tetrafluorobut-1-en-1-yl)-N—((R)-1-(ethylsulfonyl)propan-2-yl)-2-(trifluoromethyl)benzamide] | 50 to 100 | 50 to 100 | D (No activity noticed in this bioassay)
C[C@H](CS(=O)(=O)CC(F)(F)F)NC(=O)c1ccc(/C(F)=C/C(c2cc(Cl)cc(Br)c2)C(F)(F)F)cc1C(F)(F)F (stereo partly drawn) [F65] | 50 to 100 | 50 to 100 | B (More than 0-Less than 80)
C[C@H](CS(=O)(=O)CC(F)(F)F)NC(=O)c1ccc(/C(F)=C/C(c2cc(F)c(F)c(Cl)c2)C(F)(F)F)cc1C(F)(F)F (stereo partly drawn) [F103, 4-((Z)-3-(3-Chloro-4,5-difluorophenyl)-1,4,4,4-tetrafluorobut-1-en-1-yl)-N—((R)-1-((2,2,2-trifluoroethyl)sulfonyl)propan-2-yl)-2-(trifluoromethyl)benzamide] | 50 to 100 | 50 to 100 | A (80-100)
C[C@H](C[S+]([O-])CC(F)(F)F)NC(=O)c1ccc(/C(F)=C/C(c2cc(Cl)c(F)c(Cl)c2)C(F)(F)F)cc1C(F)(F)F (stereo partly drawn) [F37, 4-((Z)-3-(3,5-Dichloro-4-fluorophenyl)-1,4,4,4-tetrafluorobut-1-en-1-yl)-N-((2R)-1-((2,2,2-trifluoroethyl)sulfinyl)propan-2-yl)-2-(trifluoromethyl)benzamide] | 50 to 100 | 50 to 100 | A (80-100)
O=C(NCCS(=O)(=O)CC(F)(F)F)c1ccc(/C(F)=C/C(c2cc(Cl)c(Cl)c(Cl)c2)C(F)(F)F)cc1C(F)(F)F (stereo not drawn) [F49, (Z)-4-(1,4,4,4-tetrafluoro-3-(3,4,5-trichlorophenyl)but-1-en-1-yl)-N-(2-((2,2,2-trifluoroethyl)sulfonyl)ethyl)-2-(trifluoromethyl)benzamide] | 50 to 100 | 50 to 100 | A (80-100)
CCCC(F)(F)c1cc(Cl)cc(C(/C=C(\F)c2ccc(C(=O)N[C@H](C)CS(=O)(=O)CC(F)(F)F)c(C(F)(F)F)c2)C(F)(F)F)c1 (stereo partly drawn) [F143, 4-((Z)-3-(3-Chloro-5-(1,1-difluorobutyl)phenyl)-1,4,4,4-tetrafluorobut-1-en-1-yl)-N—((R)-1-((2,2,2-trifluoroethyl)sulfonyl)propan-2-yl)-2-(trifluoromethyl)benzamide] | 50 to 100 | 50 to 100 | D (No activity noticed in this bioassay)
